One series in a line: physchem. The source says: The composition preferably comprises an acid, preferably fumaric acid.
The conditions of series [1]: white crystalline powder; cited from earlier work.

Where a name gives a salt, the structure may show the parent alone.

What is called solubility is the dissolved amount per volume that the medium holds. Consider `OCCOCCN1CCN(C2=Nc3ccccc3Sc3ccccc32)CC1` [Quetiapine fumarate, 2-[2-(4-dibenzo[b,f] [1,4]thiazepin-11-yl-1-piperazinyl)ethoxy]ethanol], for which the solubility in “physchem” (pH 1, simulated gastric fluid) is 35.8 mg/mL; in “physchem” (pH 6.2, aqueous buffer) it was 4.6 mg/mL. In addition, the solubility in water result in series [1] is reported as “moderately soluble in water”.
